The source of these data is patent US20160137630A1, “INDUCTION OF GATA2 BY HDAC1 AND HDAC2 INHIBITORS” (ACETYLON PHARMACEUTICALS, INC., priority 2014, published 2016).

Series [1] deals with Gata2 mRNA. The experiment in a line: induction of Gata2 mRNA in erythroid progenitors by HDAC1,2 inhibitors. Type of series: cell-based, human. The note with it: erythroid progenitors differentiated 3 days with compound; FIG. 2A-C. The source says: Human bone marrow derived CD34+ cells were expanded for 7 days as described by Sankaran et al., Science, vol. 322(5909), pp. 1839-42 (2008). Cells were then differentiated, in the presence of the indicated compound (i.e., Compounds 001, Compound Y, Compound 2005, Compound 2004, Compound 2003), for 3 days in media supporting erythropoiesis (Hu et al., “Isolation and functional characterization of human erythroblasts at distinct stages: implications for understanding of normal and disordered erythropoiesis in vivo”, Blood, vol. 121(16), pp. 3246-53 ([…])). FIG. 2A, FIG. 2B, and FIG. 2C each represents an experimental series performed on different days and with different donor cells.

For series [2], the system named is Human CD34+ bone marrow cells. The experiment in a line: erythroid maturation in CS1 by CD71/GlyA flow cytometry. Type of series: cell-based. Particulars: 1 μM. The source says: To investigate the effects of HDAC inhibition on later stages of erythroid maturation, differentiation in CS1 was followed by flow cytometry using fluorescent antibodies against the transferrin receptor (CD71) and glycophorin A (GlyA). […] The majority of vehicle control cells continued to differentiate, becoming CD71^posGlyA^pos by day 8. […] CD71^posGlyA^mid cells are equivalent to proerythroblasts (ProE), while CD71^posGlyA^pos cells include the more differentiated basophilic and polychromatic erythroblasts.
For orientation: Flow cytometry measures light scatter and fluorescence of single cells or particles in a stream.

For series [3], the system named is Gata2. Put plainly: Gata2 shRNA knockdown with Compound 001 treatment. In kind it is cell-based, human. The procedure: In FIG. 13A-D, expanded hematopoietic progenitors were infected with lentivirus carrying short hairpin RNAs (shRNA) directed against the Gata2 gene (shG2-1, shG2-2) or a non-targeting control shRNA (shCtrl). Transduced cells were selected by puromycin treatment. […] RNA was isolated at the indicated time points and the level of Gata2 mRNA was determined by quantitative real time PCR (QRT-PCR). In FIG. 7A, K562 cells were infected with lentivirus as described above. […] RNA was isolated at indicated time point and the level of Gata2 mRNA was determined by quantitative real time PCR (QRT-PCR). In FIG. 7B, protein levels at Day 3 were determined by Western blot using antibodies against Gata2 and beta-actin as a loading control. […] Data was first normalized to beta-actin control and then expressed relative to vehicle treated cells.
Since Gata2 levels decline during erythroid differentiation (FIGS. 1B and 1C), knockdown experiments were performed entirely in CS1 expansion media, which supports hematopoietic progenitors, and maintained Gata2 mRNA at a constant level in shCtrl cells following infection (FIG. 13B). Gata2 mRNA was reduced by 85% or 50% in shG2-1 or shG2-2 cells, respectively, while Gata2 protein was reduced by 50% by each hairpin, relative to shCtrl cells (FIG. 13B and FIG. 13D).

Series [4] deals with Gata2 regulatory regions. The experiment in a line: Gata2 ChIP-seq at the Gata2 locus. Type of series: cell-based. The note with it: −1.8 kb region. The source says: As above, differentiation profiles of compound treated cells were highly similar to control cells (FIG. 23A). It was observed that Gata2 occupancy at the Gata2 locus is tightly correlated between K562 and primary erythroid progenitors. In both cases, binding was limited to the +9.5, −1.8, −2.8, and −3.9 kb regulatory regions (data not shown).

Series [5] is described as follows: pharmacokinetics of Compound 001 in rats. Type of series: in vivo. The note with it: rat, plasma, read-out: minimum drug exposure for the entire dosing period. The procedure:
I. A. Rats were dosed once daily by oral gavage for 6 consecutive days at 0 mg/kg, 10 mg/kg, or 30 mg/kg per dose (See FIG. 25A). Dosing days are indicated by a down arrow (FIG. 25A). Peripheral blood was drawn on the indicated days and analyzed for drug level in plasma (PK), complete blood counts (CBC), or isolation of total ribonucleic acid (RNA). C. […] Points are the average of replicate animals, error bars are the standard deviation of replicate animals (FIG. 25C).

A short description of series [6]: pharmacokinetics of Compound 001 in cynomolgus monkeys. Type of series: in vivo. Particulars: cynomolgus monkey, plasma, read-out: minimum drug exposure for the entire dosing period. The procedure:
(§1) B. Cynomolgus monkey were dosed once daily by oral gavage for 5 consecutive days at 0 mg/kg, 25 mg/kg, or 75 mg/kg per dose (FIG. 25B). Sampling as described in ‘A’.
C. […] Points are the average of replicate animals, error bars are the standard deviation of replicate animals (FIG. 25C).

Series [7] can be described thus: blood cell counts in rats. Particulars: rat. Type of series: in vivo. On the procedure: I. A. Rats were dosed once daily by oral gavage for 6 consecutive days at 0 mg/kg, 10 mg/kg, or 30 mg/kg per dose (See FIG. 25A). Dosing days are indicated by a down arrow (FIG. 25A). Peripheral blood was drawn on the indicated days and analyzed for drug level in plasma (PK), complete blood counts (CBC), or isolation of total ribonucleic acid (RNA). […] For each individual rat, white blood cell counts were expressed relative to their predose level (time=day 0). Points are the average of n=4 animals with error bars showing the standard deviation.

Series [8] in a line: blood cell counts in monkeys. Particulars: monkey. Type of series: in vivo, cynomolgus monkey. On the procedure:
as §1
For each individual monkey, white blood cell counts were expressed relative to their predose level (time=day 0). Points are the average of n=3 animals with error bars showing the standard deviation.

Series [9] is described as follows: dosing schedule study in rats. In kind it is in vivo, rat. The note with it: 30 mg/kg. On the procedure: IV. Rats were dosed with 30 mg/kg once daily by oral gavage according to the above schedule. […] Group 1=daily dosing, Group 2=5 on 2 off, Group 3=3 on 4 off, Group 4=every other day, Group 5=control. N=4 animals per group (FIG. 28A).
Data points are the average of N=4 animals. HbE2 mRNA level was determined by quantitative real time PCR and expressed relative to HbB mRNA control. Data for each animal was then normalized to the expression level prior to the onset of dosing (average of day −3 and day 0 values).
Data points are the average of N=4 animals.

For series [10], the target named is HDAC2 (Homo sapiens, UniProt Q92769).
Where [11] appears, read: every other day dosing schedule.

Read-outs that look alike come from different tables or passages of the source.

Chain of HDAC2 (Q92769 whole entry): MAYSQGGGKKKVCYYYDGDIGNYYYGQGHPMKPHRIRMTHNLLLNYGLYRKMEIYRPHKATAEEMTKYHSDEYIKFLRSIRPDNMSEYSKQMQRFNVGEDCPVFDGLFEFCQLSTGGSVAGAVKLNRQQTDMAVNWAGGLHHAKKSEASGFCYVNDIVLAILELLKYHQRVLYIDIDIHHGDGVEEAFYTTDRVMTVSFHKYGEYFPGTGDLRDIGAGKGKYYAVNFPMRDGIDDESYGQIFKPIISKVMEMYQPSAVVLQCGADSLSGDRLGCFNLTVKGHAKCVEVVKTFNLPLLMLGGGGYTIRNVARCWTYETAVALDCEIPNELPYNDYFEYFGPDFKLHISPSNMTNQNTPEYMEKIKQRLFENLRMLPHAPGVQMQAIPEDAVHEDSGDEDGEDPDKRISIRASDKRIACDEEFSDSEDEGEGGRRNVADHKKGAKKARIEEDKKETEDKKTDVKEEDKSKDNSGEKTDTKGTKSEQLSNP

Take `Nc1ccc(-c2cccs2)cc1NC(=O)c1ccc2nc(N3CCNCC3)ccc2c1` [Compound 001, N-(2-amino-5-(thiophen-2-yl)phenyl)-2-(piperazin-1-yl)quinoline-6-carboxamide]: the “Gata2 mRNA” value in [1] is reported as “induction of Gata2 mRNA”. The figures for the “erythroid differentiation (CD71/GlyA)” value in [2] (by day 8) and in series [2] (first 5 days) were “block differentiation of proerythroblasts to basophilic erythroblasts” and “differentiated normally”, respectively. Moreover, in series [3] (1 uM, cells expressing shCtrl), the “Gata2 mRNA induction” value was determined as 1.4 fold. The Gata2 protein induction in series [3] (1 uM, cells expressing shCtrl) was determined as 5 fold. Besides, the “reduction of magnitude of HbG mRNA induction relative to shCtrl cells” value in [3] (shG2-1 and shG2-2 cells) came to 25%. The “maximum increase in Gata2 binding (peak height)” value in [4] came out at 3 fold. The concentration at 6 days in series [5] (high dose (30 mg/kg once daily oral gavage, 6 days)) is at least 5000 nM; in series [5] (low dose (10 mg/kg once daily oral gavage, 6 days)), at least 1000 nM. Moreover, the concentration at 5 days is at least 5000 nM in series [6] (high dose (75 mg/kg once daily oral gavage, 5 days)) and at least 1000 nM in series [6] (low dose (25 mg/kg once daily oral gavage, 5 days)). The RBC or platelets entry in [7] and in [8] was “no detected affect” each time. The “time of peak white blood cell suppression after the last dose” value in series [7] and in [8] was 1 days throughout. In addition, the “time to recovery of white blood cell counts to baseline after the last dose” value in series [7] and in series [8] was 5 days each time. The white blood cells entry in series [7] (10 or 30 mg/kg for 6 days) and in series [8] (25 or 75 mg/kg for 5 days) was “reversible suppression” in each case. For the same compound, the entries for the “mode of HbF expression (HbE2 mRNA pattern)” value in series [9] (3 on 4 off dosing schedule) and in series [9] (setting [11]) were “heterocellular mode of HbF expression” and “pancellular mode of HbF expression”, respectively. Moreover, the “myelosuppression (white blood cell counts)” value in series [9] (3 on 4 off dosing schedule) was “greater myelo suppression”; in [9] (setting [11]), “less myelosuppression”. Also, in series [10], the IC50 (in general, the concentration needed to halve the response being measured) amounted to 42 nM.
